Measured values reported in patent US9163018B2, “Method of treatment of age-related macular degeneration (AMD)” (Prana Biotechnology Limited, priority 2006, dated 2015).

Tests used:
[1] = test system: Abeta in extract of post-mortem human AD brain tissue; assay: BAS: human brain amyloid solubilization assay; type: biochemical; details: max effect across the concentration range, referenced to baseline PBS
Description: Assay 5. Human Brain Amyloid Solubilization Assay
This assay was performed in order to assess the ability of a test compound to mobilise Aβ, as an example form of amyloid, from the insoluble to the soluble phase of an extract of tissue from post mortem human AD brain.
Up to 0.5 g of plaque-bearing cortex without meninges was homogenized using a DIAX 900 homogenizer (Hendolph and Co, Kelheim, Germany) or other suitable device for three 30-second periods at full speed in 2 ml of ice-cold phosphate-buffered saline, pH 7.4. To obtain the phosphate-buffered saline-extractable fraction, the homogenate was centrifuged at 100,000×g for 30 min and the supernatant removed. Alternatively, the tissue was freeze dried then pulverized to form a powder which was then weighed out into aliquots for extraction as above. Supernatant, either freeze-dried and resuspended or in unconcentrated form, was dissolved in 200 μl of Tris-Tricine sodium dodecyl sulfate (SDS) sample buffer pH 8.3 containing 8% SDS, 10% 2-mercaptoethanol. Aliquots (10 μl) were then boiled for 10 minutes before SDS-polyacrylamide gel electrophoresis. The insoluble fraction of the cortical samples was obtained by resuspending the initial pelleted sample in 1 ml of phosphate-buffered saline, A 50-μl aliquot of this suspension was then boiled in […] of sample buffer as above.
Tris-Tricine polyacrylamide gel electrophoresis was performed by loading appropriately diluted samples on to 10% to 20% gradient gels (Novex, San Diego, Calif.) followed by transfer on to 0.2-μm nitrocellulose membrane (Bio-Rad, Hercules, Calif.). Aβ was detected by using monoclonal antibody W02, which detects residues 5 through 8, […] (or another suitable antibody) in conjunction with horseradish peroxidase-conjugated rabbit anti-mouse IgG (Dako, Denmark), and visualized by using enhanced chemiluminescence (eg ECL; Amersham Life Science, Buckinghamshire, UK). Each gel included three lanes containing 0.5, 1, and 2 ng of synthetic Aβ40 (Keck Laboratory, Yale University, New Haven, Conn.) as reference standards.
Blot films were scanned by using a suitable imaging system such as the UVP gel documentation system, and densitometry performed using suitable software, eg UVP Labworks. The dynamic range of the film/scanner was determined by using a step tablet (No. 911ST600, Kodak, Rochester N.Y.), a calibrated film exposed by the manufacturer to provided steps of known increasing intensity. The quantifiable range of signal intensity for densitometric analysis of the mono- and dimeric Aβ bands was based on the comparison with a curve obtained by scanning and densitometry of the step tablet.
All samples were analyzed at least twice, and gel loadings and dilutions were adjusted to fit within the quantifiable region of the standard curve. The proportion of ‘soluble’ to ‘insoluble’ Aβ may be used to determine the efficiency of extraction of a test compound compared with the efficiency of a known compound. The insoluble Aβ being comprised of the pelletable fraction derived from the insoluble amyloid plaque from the above cortical samples and the soluble fraction comprising monomeric and/or oligomeric soluble Aβ.

[2] = test system: primary cortical neuronal cultured cells; assay: Test compound cytotoxicity, MTS assay, primary cortical neuronal cultures; type: cell-based, mouse; details: for Cytotox (% viable) Neuronal cells at 1 μM: 1 μM test compound; for Cytotox (% viable) Neuronal cells at 10 μM: 10 μM test compound
Description: Assay 2. Neurotoxicity Assays
Primary Cortical Neuronal Cultures
Media was then replaced with Neurobasal media (Invitrogen Life Technologies) and B27 supplements (Invitrogen Life Technologies). Cultures were maintained at 37° C. in 5% CO2. Prior to experimentation, the culture medium was replaced with Neurobasal media and B27 minus antioxidants (Invitrogen Life Technologies).
(§1) Assay 3. MTS Assay for Cell Viability
(§2) Cell viability is determined using the MTS assay. Culture medium is replaced with fresh neurobasal medium plus B27 supplements minus antioxidants. 1/10th volume MTS solution (Cell Titre 96 Aqueous One, Promega Corporation) and incubated at 37° C., 2 hrs. 200 microliter aliquots are measured with a spectrophotometer at 560 nm.
Assay 4. Assay for Test Compound Cytoxicity
Neuronal cortical cells were cultured for five days as per Assay 2 in NB media and B27 supplement.
On day six the test compounds were added to the neuronal cell cultures in NB media and B27 supplement minus antioxidants.
Test compounds were dissolved in 100% DMSO to a concentration of 2.5 mM (10 mM if excess compound was weighed out per vial—then diluted to 2.5 mM).
Test compounds were not added directly to cells, instead they were added to a 48 well ‘Drug Plate’ as comprised below:
The Drug Plate was incubated at 37° C. for 15 mins. 200 μl of each well was added in triplicate to the corresponding cell plate. The cell plate was incubated at 37 C, for 4 days.
On completion of the assay, 1/10 volume MTS was added per well of plate (ie 25 μl/250 μl). The plates were incubated at 37 C for 2 hrs, and then absorbance was read at 560 nm.

[3] = test system: M17 human neuroblastoma cells; assay: Cytotoxicity, M17 human neuroblastoma cells; type: cell-based; details: for Cytotox (% viable) M17 cells at 1 μM: 1 μM test compound; for Cytotox (% viable) M17 cells at 10 μM: 10 μM test compound
Description: as §1, §2

[4] = target: T1, Abeta:Zn (25:50 μM) Synthetic Aggregations (Homo sapiens, UniProt P05067); assay: Disaggregation of Abeta:Zn synthetic aggregates (ThT fluorescence); type: biochemical; details: for Disaggregation % Aggregate reduction at 5 μM: 5 μM test compound; for EC50: Abeta:Zn 25:50 μM aggregates
T1 construct: PB Compound Mediated Dissolution of Aggregated Abeta 1-42; purchased Keck Laboratory, Yale University School of Medicine
Description: PB Compound Mediated Dissolution of Aggregated Abeta 1-42
Abeta1-42, is available from the Keck Laboratory, Yale University School of Medicine. PBS (pH 6.6): Sigma Cat# D-8662. Zn(ZnCl2): BDH Cat#100884E. (Dissolved in water in 1 mM concentration) DMSO: Ajax Cat#2225. Thioflavin T: Sigma Cat# T-3516. (Dissolved in water in 1 mM concentration)
By way of example of an amyloid composition, Abeta is dissolved in distilled water and peptide concentration is assessed by measured absorption at 214 nm in UV spectrometer. An aggregation reactive mixture (per one concentration of one testing compound) is set us as follows: Abeta: 25 μM, ZnCl2 50 μM, ThT 50 μM, PBS to make up to 500 μl. The tube is wrapped with foil and incubated at 37 degrees by rotation for 24 hours. A serial dilution of each test compound is made up in DMSO, for example: 100 μM, 500 μM, 1000 μM, 2500 μM and 5000 μM. The final concentrations are 1, 5, 10, 25 and 50 μM, 5 μl of each of these compounds is placed in a centrifuge tube and 5 μl of DMSO is added to both negative and positive control tubes. 495 μl of aggregates (after 24 hours incubation) is added to the centrifuge tube. The negative control is PBS plus ZnCl2 and ThT and DMSO. The positive control is aggregates plus DMSO. The tubes are incubated at 37 degrees for further 2 hours with rotation. Samples are measured for ThT fluorescence using an LS55 (Perkin Elmer) fluorimeter in a cuvette (500 μl volume). The excitation wavelength is 450 nm and the emission wavelength is 480 nm. Data are analyzed using graph pad prism program. The tested compounds included so called “PB” compounds.

Aβ 1-42 = target: T2, Aβ 1-42 (Homo sapiens, UniProt P05067); assay: Fluorometric H2O2 assay (inhibition of Abeta H2O2 production); type: biochemical; details: concentration required to inhibit 50% of Abeta H2O2 production; read-out: H2O2 IC50
T2 construct: The reaction solutions contained Aβ 1-42 at concentrations
Description: Assay 1. Fluorometric H2O2 Assay
A fluorometric assay was used to test the ability of a test compound to inhibit hydrogen peroxide generation by Aβ in the presence of copper based on dichlorofluoroscein diacetate (DCF; Molecular Probes, Eugene Oreg.). The DCF solution (5 mM) in 100% dimethyl sulphoxide (previously purged with argon for 2 hr at 20° C.) was deacetylated in the presence of 0.25M NaOH for 30 min and neutralized at pH 7.4 to a final concentration of 1 mM. Horseradish peroxidase (HRP) stock solution was prepared to 1 μM at pH 7.4. The reactions were carried out in PBS, pH 7.4 in a 96 well plate (total volume=250 μl/well). […] The reaction mixture was incubated at 37 C for 60 min. […] H2O2 concentration may be established by comparing fluorescence with the H2O2 standards, Inhibition of Aβ H2O2 production was assayed by including a given concentration of test compound(s) in the test wells.

T2 sequence (P05067 672-713 limits assumed): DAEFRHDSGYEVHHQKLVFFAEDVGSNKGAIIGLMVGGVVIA
T1 sequence (P05067 672-713 limits assumed): as above

| Compound | BAS max effect [1] [%] | Cytotox (% viable) Neuronal cells at 1 μM [2] [%] | Cytotox (% viable) Neuronal cells at 10 μM [2] [%] | Cytotox (% viable) M17 cells at 1 μM [3] [%] | Cytotox (% viable) M17 cells at 10 μM [3] [%] | Disaggregation % Aggregate reduction at 5 μM [4] [%] | EC50 [4] [nM] | IC50 (Aβ 1-42) [nM] |
| --- | --- | --- | --- | --- | --- | --- | --- | --- |
| OC1=NN=CC2C=CC=NC12 (stereo not drawn) [PB 1044] | 212 |  |  |  |  |  |  |  |
| CCn1cnc2c(O)c(Cl)cc(Cl)c2c1=O [PB 1115] |  | 93 | 58 | 104.3 | 95.9 | 17 | > 20000 | 950 |
| O=C(NCCc1ccccn1)c1ccc2cccc(O)c2n1 [PB 950] | 741 | 95 | 93 |  |  |  |  | 150 |
| COC(=O)c1nc(Cl)c2cccnc2c1O [PB 1045] | 166 |  |  |  |  |  |  |  |
| COc1ccc(-c2cc(Cl)c3cccnc3c2O)cc1 [PB 814] | 209 | 97 | 31 |  |  |  |  | < 1100 |
| Cn1cnc2c(O)cccc21 [PB 1041] | 319 |  |  |  |  |  |  |  |
| Cc1cc(C)c2cccnc2c1O [PB 59] | 293 | 86 | 85 |  |  |  |  | 700 |
| CN(c1ccc2cccc(O)c2n1)c1ccc2cccc(O)c2n1 [PB 56] | 311 | 80 | 25 |  |  |  |  | 250 |
| COC(=O)c1nc(O)c2cccnc2c1O [PB 1046] | 244 |  |  |  |  |  |  |  |
| C1CNCCSCCN1 [PB 942] | 220 |  |  |  |  |  |  | < 100 |
| Br.Oc1cccc2c(=S)n(Cc3ccccn3)cnc12 [PB 1113] |  | 97 | 90 |  |  | 25.5 | > 20000 | 3200 |
| CCOC(=O)c1cnc2c(O)c(CC)ncc2c1 [PB 1116] |  | 103 | 92 |  |  | 16.8 | > 20000 | 1630 |
| CCN(CC)Cc1ccc2c(Cl)cc(Cl)c(O)c2n1.Cl [PB 1106] |  | 74 | 70 |  |  | 17.9 | 14200 | 400 |
| Oc1cccc2nc3ccccc3nc12 [PB 1027] | 306 |  |  |  |  |  |  |  |
| CN(C)c1ccc(/C=C/c2nc3ccccc3s2)cc1 [PB 985] | 265 |  |  |  |  |  |  |  |
| Oc1cccc2cc3ccccc3nc12 [PB 1043] | 175 |  |  |  |  |  |  |  |
| CCCCc1ccc2ccc3ccc(CCCC)nc3c2n1 [PB 847] | 271 |  |  |  |  |  |  | < 2500 |
| Cc1ccc2nc(-c3ccc(N(C)C)cc3)sc2c1 [PB 983] | 278 |  |  |  |  |  |  |  |
| Nc1ccccc1NC(=O)c1cc(O)c2cccc(O)c2n1 [PB 986] |  | 98 | 82 |  |  | 28 | 18400 | 3600 |
| O=C(NC(=S)Nc1cccc2cccnc12)c1ccccc1 [PB 915] | 202 |  |  |  |  |  |  | 1900 |
| Oc1c(I)cc(I)c2cccnc12 [PB 46] |  | 91 | 95 |  |  | 58.7 | 4100 | 400 |
| O=c1ccnc2c(O)cccn12 [PB 1048] | 257 |  |  |  |  |  |  |  |
| O=c1c(-c2ccc(Cl)cc2)cnc2c(O)cccn12 [PB 1069] |  | 97 | 42 | 41.2 | 25.8 | 34.8 | 11300 | 480 |
| CNCc1ccc2c(Cl)cc(Cl)c(O)c2n1.Cl [PB 1104] |  | 86 | 78 |  |  | 19.1 | > 20000 | 350 |
| CCN(CC)c1ccc2cc(-c3nc4ccccc4s3)c(=O)oc2c1 [PB 981] | 580 |  |  |  |  |  |  |  |
| Oc1cc2cccnc2c2cccnc12 [PB 1026] | 186 |  |  |  |  |  |  | 230 |
| CCN(CC)CCn1cnc2c(O)c(I)ccc2c1=O [PB 1163] |  |  |  | 106.5 | 41.4 | 43.3 | 11000 | 290 |
| O=C(O)c1ccccc1Nc1cccc(C(F)(F)F)c1 [PB 233] | 330 |  |  |  |  |  |  | > 10000 |
| O=c1[nH]cnc2c(O)cccc12 [PB 1049] | 237 |  |  |  |  |  |  |  |
| Cc1ccc2c(c1)sc(-c1ccc(N(C)C)cc1)[n+]2C [PB 982] | 188 |  |  |  |  |  |  |  |
